# Experimental data taken from patent US20250197387A1, “BCL-XL DEGRADERS AND USES THEREOF” (Kymera Therapeutics, Inc., priority 2021, published 2025).
# Like-named read-outs stand apart in the source and are kept apart here.
# How the values were obtained:
# Assay type in all cases: cell-based
# Caki-2 cells = assay: CTG (CellTiter-Glo) cell viability assay, Caki-2; conditions: Homo sapiens, 72 h, 3 day incubation, read-out: CTG Chempartner - Caki-2 3 day: Average external-IC50
# Protocol: Compound-mediated viability effect on MOLT-4 and Caki-2 was quantitatively determined using the CellTiter-Glo® Luminescent Cell Viability Assay kit from Promega (Catalog number G7570) following manufacturer's recommended procedures. Briefly, MOLT-4 and Caki-2 cells were seeded into 384 well plates (Grenier Bio-One, Catalog number 781080) with a density of 10,000 cells per well. Compounds were then added to the assay plate with final top concentration of 10 μM and 1:3 dilution series with total of 9 doses. The final DMSO concentration is normalized to 0.2%. The assay plates were incubated at 37° C., for 3 days under 5% CO2. Then the assay plate was equilibrated at room temperature for 10 minutes. To determine cell viability, 30 uL CellTiter Glo reagent was added to each well and the assay plate was centrifuged at 1000 rpm for 30 second, incubated at room temperature for 10 min, and analyzed by detecting the luminescence using a multimode plate reader (EnVision 2105, PerkinElmer). The data was then analyzed by software Prism 7.0 from GraphPad and the dose response curves are fit using a three-parameter logistic equation to calculate IC50.
# The letter codes for MOLT-4 IC50 include: A (<0.1 μM); B (0.1-1.0 μM); C (>1.0-3.0 μM); and D (>3.0 μM). The letter codes for Caki-2 IC50 include: A (<0.1 μM); B (0.1-1.0 μM); C (>1.0-10.0 μM); and D (>10.0 μM).
# MOLT-4 cells = assay: CTG (CellTiter-Glo) cell viability assay, MOLT-4; conditions: 3 day incubation, read-out: CTG Cell Viability Assay - MOLT-4 3 day: Average external-IC50
# In short: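 IC50 is from a three-parameter logistic fit of CellTiter-Glo luminescence after 3-day treatment of cells seeded at 10,000 per well. Codes: MOLT-4 A <0.1, B 0.1-1.0, C >1.0-3.0, D >3.0 μM; Caki-2 A <0.1, B 0.1-1.0, C >1.0-10.0, D >10.0 μM.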
# BCL-XL [1] = biological target: T1, BCL-XL (Homo sapiens, UniProt Q07817); assay: BCL-XL degradation assay, western blot in MOLT-4 cells, 16 h; conditions: western blot, MOLT-4 cells, 16 h; for Dmax: read-out: Bcl-xL WB in MOLT-4 degradation 16 h: Average Dmax %; for DC50: read-out: Bcl-xL WB in MOLT-4 degradation 16 h: Mean external-Abs DC50
# T1 construct: endogenous in cells; host or cells: MOLT-4
# T1 sequence (Q07817 whole entry): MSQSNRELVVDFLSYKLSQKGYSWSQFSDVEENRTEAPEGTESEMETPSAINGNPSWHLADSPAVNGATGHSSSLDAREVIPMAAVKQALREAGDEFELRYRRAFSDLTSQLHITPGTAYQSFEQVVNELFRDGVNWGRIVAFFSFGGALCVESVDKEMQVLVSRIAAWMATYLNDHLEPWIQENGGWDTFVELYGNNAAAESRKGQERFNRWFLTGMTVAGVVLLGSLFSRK
# In short: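 Infrared-imaged western blots quantified BCL-xL (normalised against beta-actin/GAPDH) after 16 hr, 37° C exposure of MOLT-4 cells to 0.02-10 μM compound; results given as DC50 and Dmax % bins.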
# BCL-XL [2] = biological target: T1, BCL-XL; assay: Bcl-xL ELISA degradation in MOLT-4 cells, 6 h; conditions: for DC50: read-out: Bcl-xL ELISA in MOLT-4 degradation 6 h: Mean external-Abs DC50
# Protocol: The letter codes for BCL-XL DC50 include: A (<0.01 μM); B (0.01-0.1 μM); C (>[…]); D (>0.5-1.0 μM); and E (>1.0 μM). The letter codes for Dmax % include A (>75%); B (50 to 75%); C (<50%).
SMILES,"IC50 (MOLT-4 cells; Homo sapiens, MOLT-4, 72 h)",Dmax (BCL-XL [1]),DC50 (BCL-XL [1]),IC50 (Caki-2 cells),further results
"Cc1c(-c2ccc(N3CCc4cccc(C(=O)Nc5nc6cccnc6s5)c4C3)nc2C(=O)NS(=O)(=O)CCCCCC(=O)N[C@H](C(=O)N2C[C@H](O)C[C@H]2C(=O)N[C@@H](C)c2ccc(C#N)cc2O)C(C)(C)C)cnn1CC1CCCCC1 (single isomer, unassigned) [I-485]",> 3 µM,,,> 10 µM,
Cc1ncsc1-c1ccc([C@H](C)NC(=O)[C@@H]2C[C@@H](O)CN2C(=O)[C@@H](NC(=O)CCCC(=O)N(C)CC#Cc2cccc(F)c2OCCCc2sc(N3CCc4cccc(C(=O)Nc5nc6ccccc6s5)c4C3)nc2C(=O)O)C(C)(C)C)cc1 [I-15],,50 to 75%,0.5 to 1 µM,> 10 µM,
Cc1ncsc1-c1ccc([C@H](C)NC(=O)[C@@H]2C[C@@H](O)CN2C(=O)[C@@H](NC(=O)CCCCCC(=O)N(C)CC#Cc2cccc(F)c2OCCCc2sc(N3CCc4cccc(C(=O)Nc5nc6ccccc6s5)c4C3)nc2C(=O)O)C(C)(C)C)cc1 [I-16],,> 75%,0.1 to 0.5 µM,> 10 µM,
Cc1ncsc1-c1ccc([C@H](C)NC(=O)[C@@H]2C[C@@H](O)CN2C(=O)[C@@H](NC(=O)CCCCCCCC(=O)N(C)CC#Cc2cccc(F)c2OCCCc2sc(N3CCc4cccc(C(=O)Nc5nc6ccccc6s5)c4C3)nc2C(=O)O)C(C)(C)C)cc1 [I-17],,> 75%,0.01 to 0.1 µM,> 10 µM,
Cc1ncsc1-c1ccc([C@H](C)NC(=O)[C@@H]2C[C@@H](O)CN2C(=O)[C@@H](NC(=O)CCCCCC(=O)NCCOc2ccc(C(=O)Nc3nc4ccccc4s3)c3c2CCN(c2ccc(-c4cnn(CC5CCCCC5)c4C)c(C(=O)O)n2)C3)C(C)(C)C)cc1 [I-44],,> 75%,0.1 to 0.5 µM,> 10 µM,
Cc1ncsc1-c1ccc([C@H](C)NC(=O)[C@@H]2C[C@@H](O)CN2C(=O)[C@@H](NC(=O)CCCCCS(=O)(=O)NC(=O)c2nc(N3CCc4cccc(C(=O)Nc5nc6ccccc6s5)c4C3)ccc2-c2cnn(CC3CCCCC3)c2C)C(C)(C)C)cc1 [I-118],,> 75%,< 0.01 µM,> 10 µM,Dmax (BCL-XL [2]): > 75%; DC50 (BCL-XL [2]): < 0.01 µM
Cc1ncsc1-c1ccc(CNC(=O)[C@@H]2C[C@@H](O)CN2C(=O)[C@@H](NC(=O)C2(F)CC2)C(C)(C)C)c(OCCCCCCN(C)C(=O)c2nc(N3CCc4cccc(C(=O)Nc5nc6ccccc6s5)c4C3)ccc2-c2cnn(CC3CCCCC3)c2C)c1 [I-168],0.1 to 1 µM,,,> 10 µM,
Cc1ncsc1-c1ccc([C@H](C)NC(=O)[C@@H]2C[C@@H](O)CN2C(=O)[C@@H](NC(=O)C2CCN(c3ccc(S(=O)(=O)NC(=O)c4nc(N5CCc6cccc(C(=O)Nc7nc8ccccc8s7)c6C5)ccc4-c4cccc5c4cnn5C(C)C)cc3)CC2)C(C)(C)C)cc1 [I-297],,,,1 to 10 µM,Dmax (BCL-XL [2]): < 50%; DC50 (BCL-XL [2]): 0.5 to 1 µM
Cc1ncsc1-c1ccc(CNC(=O)[C@@H]2C[C@@H](O)CN2C(=O)[C@@H](NC(=O)C2(F)CC2)C(C)(C)C)c(OCC(=O)N2CCN(CC[C@H](CSc3ccccc3)Nc3ccc(S(=O)(=O)NC(=O)c4ccc(N5CCN(CC6=C(c7ccc(Cl)cc7)CCC(C)(C)C6)CC5)cc4)cc3S(=O)(=O)C(F)(F)F)CC2)c1 [I-387],,> 75%,0.01 to 0.1 µM,> 10 µM,
Cc1ncsc1-c1ccc([C@H](C)NC(=O)[C@@H]2C[C@@H](O)CN2C(=O)[C@@H](NC(=O)CCCCCCC(=O)N2CCN(C[C@@]3(C)CCC(c4ccc(Cl)cc4)=C(CN4CCN(c5ccc(C(=O)NS(=O)(=O)c6ccc(N[C@H](CCN7CCOCC7)CSc7ccccc7)c(S(=O)(=O)C(F)(F)F)c6)cc5)CC4)C3)CC2)C(C)(C)C)cc1 [I-396],0.1 to 1 µM,> 75%,< 0.01 µM,,Dmax (BCL-XL [2]): 50 to 75%; DC50 (BCL-XL [2]): 0.5 to 1 µM
Cc1ncsc1-c1ccc([C@H](C)NC(=O)[C@@H]2C[C@@H](O)CN2C(=O)[C@@H](NC(=O)CCCCCCC(=O)N2CCN(CC3(C)CCC(c4ccc(Cl)cc4)=C(CN4CCN(c5ccc(C(=O)NS(=O)(=O)c6ccc(N[C@H](CCN7CCOCC7)CSc7ccccc7)c(S(=O)(=O)C(F)(F)F)c6)cc5)CC4)C3)CC2)C(C)(C)C)cc1 (stereo partly drawn) [I-399],,,< 0.01 µM,,Bcl-xL WB in MOLT-4 degradation 16 h: Average Dmax % (BCL-XL [1]): A (A (>75%)); Bcl-xL ELISA in MOLT-4 degradation 6 h: Average Dmax % (BCL-XL [2]): C (C (<50%)); DC50 (BCL-XL [2]): 0.1 to 0.5 µM; IC50 (MOLT-4 cells): 0.1 to 1 µM
Cc1ncsc1-c1ccc([C@H](C)NC(=O)[C@@H]2C[C@@H](OC(=O)CCP(=O)(O)O)CN2C(=O)[C@@H](NC(=O)CCCS(=O)(=O)NC(=O)c2nc(N3CCc4cccc(C(=O)Nc5nc6ccccc6s5)c4C3)ccc2-c2cnn(CC3CCCCC3)c2C)C(C)(C)C)cc1 [I-411],,,,> 10 µM,"IC50 (MOLT-4 cells; Homo sapiens, 72 h): 0.1 to 1 µM"
C#Cc1ccc(CNC(=O)[C@@H]2C[C@@H](O)CN2C(=O)[C@@H](NC(=O)CCCS(=O)(=O)NC(=O)c2nc(N3CCc4cccc(C(=O)Nc5nc6cccnc6s5)c4C3)ccc2-c2cnn(CC(C)C)c2C)C(C)(C)C)cc1 [I-412],> 3 µM,,,> 10 µM,
Cc1cc(N(C)c2ccc(-c3cnn(CC4CCCC4)c3C)c(C(=O)NS(=O)(=O)c3ccc(N4CCC(C(=O)N[C@H](C(=O)N5C[C@H](O)C[C@H]5C(=O)N[C@@H](C)c5ccc(-c6scnc6C)cc5)C(C)(C)C)CC4)cc3)n2)nnc1Nc1nc2ccccc2s1 [I-441],1 to 3 µM,,,> 10 µM,
Cc1ccc(NC(=O)c2cccc3c2CN(c2ccc(-c4cnn(CC5CCCCC5)c4C)c(C(=O)NS(=O)(=O)CCCCCC(=O)N[C@H](C(=O)N4C[C@H](O)C[C@H]4C(=O)N[C@@H](C)c4ccc(-c5scnc5C)cc4)C(C)(C)C)n2)CC3)nc1 [I-458],> 3 µM,,,> 10 µM,

# Further lines, with some results ahead:
"IC50 (MOLT-4 cells; Homo sapiens, MOLT-4, 72 h)",Dmax (BCL-XL [1]),DC50 (BCL-XL [1]),SMILES,IC50 (Caki-2 cells),further results
0.1 to 1 µM,,,Cc1cc(N(C)c2ccc(-c3cnn(CC45CC6CC(CC(C6)C4)C5)c3C)c(C(=O)NS(=O)(=O)CCNCCC(=O)N[C@H](C(=O)N3C[C@H](O)C[C@H]3C(=O)N[C@@H](C)c3ccc(-c4scnc4C)cc3)C(C)(C)C)n2)nnc1Nc1nc2ccccc2s1 [I-427],> 10 µM,
0.1 to 1 µM,,,C#Cc1ccc(CNC(=O)[C@@H]2C[C@@H](O)CN2C(=O)[C@@H](NC(=O)CCNCCS(=O)(=O)NC(=O)c2nc(N(C)c3cc(C)c(Nc4nc5ccccc5s4)nn3)ccc2-c2cnn(CC34CC5CC(CC(C5)C3)C4)c2C)C(C)(C)C)c(OCCO)c1 [I-431],> 10 µM,
1 to 3 µM,,,Cc1cc(N(C)c2ccc(-c3cnn(CC45CC6CC(CC(C6)C4)C5)c3C)c(C(=O)NS(=O)(=O)CCN3CC(C(=O)N[C@H](C(=O)N4C[C@H](O)C[C@H]4C(=O)N[C@@H](C)c4ccc(-c5scnc5C)cc4)C(C)(C)C)C3)n2)nnc1Nc1nc2ccccc2s1 [I-432],> 10 µM,
< 0.1 µM,,,Cc1cc(N2CC(C(=O)N[C@H](C(=O)N3C[C@H](O)C[C@H]3C(=O)NCc3ccc(-c4scnc4C)cc3)C(C)(C)C)C2)ccc1S(=O)(=O)NC(=O)c1nc(N(C)c2cc(C)c(Nc3nc4ccccc4s3)nn2)ccc1-c1cnn(CC23CC4CC(CC(C4)C2)C3)c1C [I-435],> 10 µM,
0.1 to 1 µM,,,Cc1cc(N(C)c2ccc(-c3cnn(CC45CC6CC(CC(C6)C4)C5)c3C)c(C(=O)NS(=O)(=O)CCCCCC(=O)N[C@H](C(=O)N3C[C@H](O)C[C@H]3C(=O)N[C@@H](C)c3ccc(-c4scnc4C)cc3)C(C)(C)C)n2)nnc1Nc1nc2cccnc2s1 [I-439],> 10 µM,
0.1 to 1 µM,,,Cc1cc(N(C)c2ccc(-c3cnn(CC45CC6CC(CC(C6)C4)C5)c3C)c(C(=O)NS(=O)(=O)CCCN(C)CC(=O)N[C@H](C(=O)N3C[C@H](O)C[C@H]3C(=O)N[C@@H](C)c3ccc(-c4scnc4C)cc3)C(C)(C)C)n2)nnc1Nc1nc2cccnc2s1 [I-448],> 10 µM,
